# Values joined by “and” are separate entries in the source; they are usually repeats but may differ in a detail not shown here. Identical values can stand only once.
# What was measured:
# [1] = Release of the parent drug (Dox / dansyl amine) from prodrugs treated with alkynes, monitored by HPLC; format: physicochemical; conditions: r.t, PBS 10% DMSO
# Experimental: Standard curve of Dox concentration measurement. To four HPLC vials containing 0.9 mL PBS (size: 1.5 mL) were added 25, 15, 20, 10 μL Dox stock solution (1 mM) respectively. Then defined amounts DMSO (975, 985, 980, and 990 μL) were added to each vial to afford final concentration of four vials were 25, 15, 20, 10 μM in PBS (10% DMSO), respectively. The samples were analyzed with HPLC method A. Dox retention time: 4.0 min.
# Standard curve for DA concentration measurement. To four HPLC vials containing 0.9 mL PBS (size: 1.5 mL) were added 25, 15, 20, 10 μL Dox stock solution (1 mM) respectively. Then defined amounts DMSO (975, 985, 980, and 990 μL) were added to each vial to afford final concentration of four vials were 25, 15, 20, 10 μM in PBS (10% DMSO), respectively. The samples were analyzed with HPLC method B. DA retention time: 5.8 min.
# General procedures HPLC studies of reaction kinetics. To three 20-ml vials with 9 mL PBS were added a solution of tetrazine prodrug (500 μL, 500 μM). 350 μL, 300 μL and 250 μL DMSO were added to vial respectively, and then 150 μL, 200 μL and 250 μL of the alkyne solution (50 mM in DMSO) were added to the vials to afford final concentrations of alkyne 0.75 mM, 1 mM and 1.25 mM in PBS (10% DMSO, 25 μM prodrug) respectively. The reaction was stirred at r.t or 37° C. respectively. Every 30 min about 500 μL reaction mixtures were taken out and 20 μL of them were injected into the HPLC by the autosampler; the rest of them were poured back to the reaction mixture. (Note: In the cases of prodrugs 1d or 1b reacting with alkyne 2d at 37° C., the final concentrations of 2d in the kinetic studies were 250 μM, 300 μM and 350 μM).
# Results. The results from the reaction kinetics studies of the tetrazine-cyclooctyne system are summarized below in Table 4. Prodrugs 1d or 1b (25 μM) were treated with alkynes 2d, 2c ,2a, or 2b at different concentrations at room temperature (r.t.) or 37° C., respectively. The prodrug consumption and release of the parent drug were monitored by HPLC (Table 4).
# [2] = HPLC studies of reaction kinetics of tetrazine prodrugs with cyclooctyne alkynes (Kobs, second-order rate constant k2); format: physicochemical; conditions: for Kobs: prodrug 25 μM; for k2 at 37° C. (second order rate constant) / k2 at r.t (second order rate constant): PBS containing 10% DMSO, n = 3
# In short: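 Tetrazine prodrug (25 μM) reacted with alkyne at 0.75, 1 and 1.25 mM in PBS with 10% DMSO, at room temperature or 37 °C. Prodrug HPLC peak area was sampled every 30 min and fitted to single exponential decay for kobs; k2 was taken as the slope of kobs versus alkyne concentration.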
smiles,measurement,setting,value
C#CCOc1ccc(-c2nnc(C(=O)NCCCOCCOCCOCCCNS(=O)(=O)c3cccc4c(N(C)C)cccc34)nn2)cc1 [1d],Time of the Dox peak (in brackets in the Dox Peak % cell),[1]; alkyne 2b,16 h
same,Time of the Dox peak (in brackets in the Dox Peak % cell),[1]; alkyne 2c,20 h
same,Time of the Dox peak (in brackets in the Dox Peak % cell),[1]; alkyne 2d,48 h
same,Kobs,"[2]; 37° C., alkyne 2b 0.75 mM, Expt. 1",0.411 h⁻¹
same,Kobs,"[2]; 37° C., alkyne 2b 0.75 mM, Expt. 2",0.388 h⁻¹
same,Kobs,"[2]; 37° C., alkyne 2b 0.75 mM, Expt. 3",0.353 h⁻¹
same,Kobs,"[2]; 37° C., alkyne 2b 1.00 mM, Expt. 1",0.548 h⁻¹
same,Kobs,"[2]; 37° C., alkyne 2b 1.00 mM, Expt. 2",0.511 h⁻¹
same,Kobs,"[2]; 37° C., alkyne 2b 1.00 mM, Expt. 3",0.453 h⁻¹
same,Kobs,"[2]; 37° C., alkyne 2b 1.25 mM, Expt. 1",0.695 h⁻¹
same,Kobs,"[2]; 37° C., alkyne 2b 1.25 mM, Expt. 2",0.636 h⁻¹
same,Kobs,"[2]; 37° C., alkyne 2b 1.25 mM, Expt. 3",0.561 h⁻¹
same,Kobs,"[2]; 37° C., alkyne 2c 0.75 mM, Expt. 1",0.0506 h⁻¹
same,Kobs,"[2]; 37° C., alkyne 2c 0.75 mM, Expt. 2",0.0584 h⁻¹
same,Kobs,"[2]; 37° C., alkyne 2c 0.75 mM, Expt. 3",0.0599 h⁻¹
same,Kobs,"[2]; 37° C., alkyne 2c 1.00 mM, Expt. 1",0.0670 h⁻¹
same,Kobs,"[2]; 37° C., alkyne 2c 1.00 mM, Expt. 2",0.0781 h⁻¹
same,Kobs,"[2]; 37° C., alkyne 2c 1.00 mM, Expt. 3",0.0801 h⁻¹
same,Kobs,"[2]; 37° C., alkyne 2c 1.25 mM, Expt. 1",0.083 h⁻¹
same,Kobs,"[2]; 37° C., alkyne 2c 1.25 mM, Expt. 2",0.0978 h⁻¹
same,Kobs,"[2]; 37° C., alkyne 2c 1.25 mM, Expt. 3",0.101 h⁻¹
same,Kobs,"[2]; 37° C., alkyne 2d 0.25 mM, Expt. 1",1.82 h⁻¹
same,Kobs,"[2]; 37° C., alkyne 2d 0.25 mM, Expt. 2",1.64 h⁻¹
same,Kobs,"[2]; 37° C., alkyne 2d 0.25 mM, Expt. 3",1.90 h⁻¹
same,Kobs,"[2]; 37° C., alkyne 2d 0.3 mM, Expt. 1",2.15 h⁻¹
same,Kobs,"[2]; 37° C., alkyne 2d 0.3 mM, Expt. 2",1.94 h⁻¹
same,Kobs,"[2]; 37° C., alkyne 2d 0.3 mM, Expt. 3",2.26 h⁻¹
same,Kobs,"[2]; 37° C., alkyne 2d 0.35 mM, Expt. 1",2.53 h⁻¹
same,Kobs,"[2]; 37° C., alkyne 2d 0.35 mM, Expt. 2",2.25 h⁻¹
same,Kobs,"[2]; 37° C., alkyne 2d 0.35 mM, Expt. 3",2.65 h⁻¹
same,k2 at 37° C. (second order rate constant),"[2]; alkyne 2b, 37° C.",0.14 M⁻¹ s⁻¹ and 0.14 ± 0.04 M⁻¹ s⁻¹
same,k2 at r.t (second order rate constant),"[2]; alkyne 2b, r.t",0.042 M⁻¹ s⁻¹ and 0.042 ± 0.012 M⁻¹ s⁻¹
same,k2 at 37° C. (second order rate constant),"[2]; alkyne 2c, 37° C.",0.021 M⁻¹ s⁻¹ and 0.021 ± 0.005 M⁻¹ s⁻¹
same,k2 at r.t (second order rate constant),"[2]; alkyne 2c, r.t",0.0075 M⁻¹ s⁻¹ and 0.0075 ± 0.0009 M⁻¹ s⁻¹
same,k2 at 37° C. (second order rate constant),"[2]; alkyne 2d, 37° C.",1.9 M⁻¹ s⁻¹ and 1.9 ± 0.4 M⁻¹ s⁻¹
same,k2 at r.t (second order rate constant),"[2]; alkyne 2d, r.t",0.25 M⁻¹ s⁻¹ and 0.25 ± 0.06 M⁻¹ s⁻¹
same,Kobs,"[2]; r.t, alkyne 2b 0.75 mM, Expt. 1",0.125 h⁻¹
same,Kobs,"[2]; r.t, alkyne 2b 0.75 mM, Expt. 2",0.115 h⁻¹
same,Kobs,"[2]; r.t, alkyne 2b 0.75 mM, Expt. 3",0.13 h⁻¹
same,Kobs,"[2]; r.t, alkyne 2b 1.00 mM, Expt. 1",0.155 h⁻¹
same,Kobs,"[2]; r.t, alkyne 2b 1.00 mM, Expt. 2",0.148 h⁻¹
same,Kobs,"[2]; r.t, alkyne 2b 1.00 mM, Expt. 3",0.175 h⁻¹
same,Kobs,"[2]; r.t, alkyne 2b 1.25 mM, Expt. 1",0.199 h⁻¹
same,Kobs,"[2]; r.t, alkyne 2b 1.25 mM, Expt. 2",0.180 h⁻¹
same,Kobs,"[2]; r.t, alkyne 2b 1.25 mM, Expt. 3",0.22 h⁻¹
same,Kobs,"[2]; r.t, alkyne 2c 0.75 mM, Expt. 1",0.0203 h⁻¹
same,Kobs,"[2]; r.t, alkyne 2c 0.75 mM, Expt. 2",0.0201 h⁻¹
same,Kobs,"[2]; r.t, alkyne 2c 0.75 mM, Expt. 3",0.0217 h⁻¹
same,Kobs,"[2]; r.t, alkyne 2c 1.00 mM, Expt. 1",0.0273 h⁻¹
same,Kobs,"[2]; r.t, alkyne 2c 1.00 mM, Expt. 2",0.0269 h⁻¹
same,Kobs,"[2]; r.t, alkyne 2c 1.00 mM, Expt. 3",0.0289 h⁻¹
same,Kobs,"[2]; r.t, alkyne 2c 1.25 mM, Expt. 1",0.0339 h⁻¹
same,Kobs,"[2]; r.t, alkyne 2c 1.25 mM, Expt. 2",0.0324 h⁻¹
same,Kobs,"[2]; r.t, alkyne 2c 1.25 mM, Expt. 3",0.0359 h⁻¹
same,Kobs,"[2]; r.t, alkyne 2d 0.75 mM, Expt. 1",0.752 h⁻¹
same,Kobs,"[2]; r.t, alkyne 2d 0.75 mM, Expt. 2",0.704 h⁻¹
same,Kobs,"[2]; r.t, alkyne 2d 0.75 mM, Expt. 3",0.756 h⁻¹
same,Kobs,"[2]; r.t, alkyne 2d 1.00 mM, Expt. 1",0.980 h⁻¹
same,Kobs,"[2]; r.t, alkyne 2d 1.00 mM, Expt. 2",0.802 h⁻¹
same,Kobs,"[2]; r.t, alkyne 2d 1.00 mM, Expt. 3",1.01 h⁻¹
same,Kobs,"[2]; r.t, alkyne 2d 1.25 mM, Expt. 1",1.20 h⁻¹
same,Kobs,"[2]; r.t, alkyne 2d 1.25 mM, Expt. 2",1.10 h⁻¹
same,Kobs,"[2]; r.t, alkyne 2d 1.25 mM, Expt. 3",1.26 h⁻¹

# From patent publication US11607458B2 (Georgia State University Research Foundation, Inc, priority 2017, dated 2023)
